Assays:
[1] = tested on: MDA-MB-231 cells; experiment: Cell proliferation assay (crystal violet); type: cell-based; conditions: various concentrations, 72 hours
Description: MDA-MB-231 cells treated with a compound of the present application (e.g., compound 1-1, 2-5, 1-14 and 3-8, respectively) were seeded at a density of 5×10^4cells/well in 12-well plate and incubated at 37° C. with 5% CO2. After 72 hours of culturing, the cells were washed with PBS, fixed in 4% formaldehyde for 15 minutes and stained with 0.1% crystal violet for 20 minutes. Cells were washed with water and the staining was extracted with 10% acetic acid for 20 minutes and absorbance was measured at 590 nm. The experiments were performed in triplicates.

[2] = tested on: MDA-MB-231 cells (breast cancer cells); experiment: Transwell cell migration assay; type: cell-based; conditions: MDA-MB-231, 24 h; for relative migration (%) of cells: FIG. 61; for migrated cells: FIGS. 62-67
Description: MDA-MB-231 cells (breast cancer cells) were starved in 0.5% serum-DMEM for 8 hours. For the migration assay, a total of 5×10^4cells were suspended in 500 μL of serum-free DMEM medium and seeded into the upper chamber of a […] pore size insert. Then, 750 μL of DMEM (containing 10% FBS) with or without the compound of the present application was added to the lower compartment. After incubation at 37° C. for 24 h, migrated cells were washed with PBS, fixed in 4% PFA and stained for 30 min in crystal violet solution (0.1% crystal violet). […] Each insert was photographed in 3 random fields at a magnification of 40×.

[3] = Assay of intrinsic clearance in liver microsomes (mouse); type: in vitro ADME; conditions: Mouse liver microsomes 0.5 mg/mL, 2 μM compound, 37° C.; for microsomal CLint at 2 μM: read-out: in vitro CLint (μL/min/mg protein); for half-life at 2 μM: read-out: in vitro t1/2
Description: (§1) 1. The master solution was prepared according to Table 11.
(§2) 2. Three separated experiments were performed as follows. a) With NADPH: 10 μL of 20 mg/mL liver microsomes and 40 μL of 10 mM NADPH were added to the incubations. The final concentrations of microsomes and NADPH were 0.5 mg/mL and 1 mM, respectively. b) Without NADPH: 10 μL of 20 mg/mL liver microsomes and 40 μL of ultra-pure H2O were added to the incubations. The final concentration of microsomes was 0.5 mg/mL. c) Heat-inactivated microsomes without NADPH: 10 μL of 20 mg/mL heat-inactivated liver microsomes and 40 μL of ultra-pure H2O were added to the incubations. The final concentration of microsomes was 0.5 mg/mL.
(§3) 3. The reaction was started with the addition of 4 μL of 200 μM test compound solution or control compound solution at the final concentration of 2 μM and carried out at 37° C.
(§4) 4. Aliquots of 50 μL were taken from the reaction solution at 0, 15, 30, 45 and 60 min. The reaction was stopped by the addition of 4 volumes of cold acetonitrile with IS (100 nM alprazolam, 200 nM labetalol, 200 nM caffeine and 2 μM ketoprofen). Samples were centrifuged at 3, 220 g for 40 minutes.
(§5) Peak areas were determined from extracted ion chromatograms. The slope value, k, was determined by linear regression of the natural logarithm of the remaining percentage of the parent drug vs. incubation time curve.
(§6) The in vitro half-life (in vitro t1/2) was determined from the slope value:
(§7) Conversion of the in vitro t1/2 (min) into the in vitro intrinsic clearance (in vitro CLint, in μL/min/mg protein) was done using the following equation (mean of duplicate determinations):
(§8) in vitro CLint=(0.693 * volume of incubation(μl))/(in vitro t1/2 * amount of proteins(mg))

[4] = molecular target: wild type CK1δ (Homo sapiens, UniProt P48730); experiment: CK1δ kinase assay (Kinase-Glo); type: biochemical; conditions: 10 μM ATP, 2 nM wild type CK1δ, 85 min at 25° C.; read-out: CK1δ inhibition (IC50)
Description: The CK1δ kinase assay was performed with a buffer (40 μL, pH 7.5) containing 50 mM Tris, 10 mM MgCl2, 1 mM dithiothreitol, 100 μg/mL BSA with 10 μM ATP, 2 nM wild type CK1δ, and 42 μM peptide substrate PLSRTLpSVASLPGL (Flotow et al., 1990) in the presence of 1 μL of a CK1δ inhibitor (e.g., a compound of the present application) or 4% DMSO (e.g., as control). The reaction mixture was incubated for 85 min at 25° C.; detection was carried out as described for the Kinase-Glo Assay (Promega). Luminescent output was measured on the Perkin Elmer Envision plate reader (PerkinElmer, Waltham, Mass.).

[5] = Assay of intrinsic clearance in liver microsomes (human); type: in vitro ADME; conditions: Human liver microsomes 0.5 mg/mL, 2 μM compound, 37° C.; for microsomal CLint at 2 μM: read-out: in vitro CLint (μL/min/mg protein); for half-life at 2 μM: read-out: in vitro t1/2
Description: as §1, §2, §3, §4, §5, §6, §7, §8

[6] = in vitro; conditions: human, Caco-2, pH 7.4
Description: 1) 50 μL and 25 mL of cell culture medium were added to each well of the Transwell insert and reservoir, respectively. And then the HTS transwell plates were incubated at 37° C., 5% CO2 for 1 hour before cell seeding.
2) Caco-2 cells were diluted to 6. 86×10^5 cells/mL with culture medium and 50 μL of cell suspension were dispensed into the filter well of the 96-well HTS Transwell plate. Cells were cultivated for 14-18 days in a cell culture incubator at 37° C., 5% CO2, 95% relative humidity. Cell culture medium was replaced every other day, beginning no later than 24 hours after initial plating.
10 mM stock solutions of test compounds were prepared in DMSO. The stock solutions of positive controls were prepared in DMSO at the concentration of 10 mM. Digoxin and propranolol were used as control compounds in this assay.
1) Medium was removed from the reservoir and each Transwell insert and replaced with prewarmed fresh culture medium.
2) Transepithelial electrical resistance (TEER) across the monolayer was measured using Millicell Epithelial Volt-Ohm measuring system (Millipore, USA).
The TEER value was calculated according to the following equation: TEER measurement (ohms) * Area of membrane (cm^2)=TEER value (ohm·cm^2) TEER value should be greater than 230 ohm·cm^2, which indicates the well-qualified Caco-2 monolayer.
1) The Caco-2 plate was removed from the incubator and washed twice with pre-warmed HMS (10 mM HEPES, pH 7.4), and then incubated at 37° C. for 30 minutes.
2) The stock solutions of control compounds and test compounds were diluted in DMSO to get 1 mM solutions and then diluted with HMS (10 mM HEPES, pH 7.4) get 5 μM working solutions. The final concentration of DMSO in the incubation system was 0.5%.
3) To determine the rate of drug transport in the apical to basolateral direction. 125 μL of 5 μM working solution of control compound and test compounds were added to the Transwell insert (apical compartment), and transfer 50 μL sample (D0 sample) immediately from the apical compartment to a new 96-well plate. Fill the wells in the receiver plate (basolateral compartment) with 235 μL of MSS (10 mM HEPES, pH 7.4).
4) To determine the rate of drug transport in the basolateral to apical direction. 285 μL of 5 μM working solution of control compound and test compounds were to the receiver plate wells (basolateral compartment), and transfer 50 μL sample (D0 sample) immediately from the basolateral compartment to a new 96-well plate. Fill the wells in the Transwell insert (apical compartment) with 75 μL of MSS (10 mM HEPES, pH 7.4). The assay was performed in duplicate.
5) The plates were incubated at 37° C. for 2 hours.
6) At the end of the incubation, 50 μL samples from donor sides (apical compartment for Ap→Bl flux, and basolateral compartment for Bl→Ap) and receiver sides (basolateral compartment for Ap→Bl flux, and apical compartment for Bl→Ap) were transferred to wells of a new 96-well plate, followed by the addition of 4 volume of cold methanol containing appropriate internal standards (IS). Samples were Vortexed for 5 minutes and then centrifuged at 3,220 g for 40 minutes. An aliquot of 100 μL of the supernatant was mixed with an appropriate volume of ultra-pure water before LC-MS/MS analysis.
7) To determine the Lucifer Yellow leakage after 2-hour transport period, stock solution of Lucifer yellow was prepared in water and diluted with HMS (10 mM HEPES, pH 7.4) to reach the final concentration of 100 μM. 100 μL of the Lucifer yellow solution was added to each Transwell insert (apical compartment), followed by filling the wells in the receiver plate (basolateral compartment) with 300 μL of HBSS (10 mM HEPES, pH 7.4). The plates were Incubated at 37° C. for 30 mins. 80 μL samples were removed directly from the apical and basolateral wells (using the basolateral access holes) and transferred to wells of new 96 wells plates.

wild type CK1δ, sequence (P48730 whole entry): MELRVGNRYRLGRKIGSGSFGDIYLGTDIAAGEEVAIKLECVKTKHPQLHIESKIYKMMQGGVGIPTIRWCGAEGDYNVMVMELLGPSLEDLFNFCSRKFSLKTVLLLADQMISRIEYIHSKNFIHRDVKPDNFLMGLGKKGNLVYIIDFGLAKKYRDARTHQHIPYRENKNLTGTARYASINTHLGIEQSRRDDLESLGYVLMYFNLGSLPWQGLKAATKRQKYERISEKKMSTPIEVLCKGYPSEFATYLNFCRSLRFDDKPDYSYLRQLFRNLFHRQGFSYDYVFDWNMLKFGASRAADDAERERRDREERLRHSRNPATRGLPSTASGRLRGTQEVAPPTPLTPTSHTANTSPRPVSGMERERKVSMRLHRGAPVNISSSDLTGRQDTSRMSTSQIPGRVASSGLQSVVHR

Compound	microsomal CLint at 2 μM [3] [µL/min/mg]	half-life at 2 μM [3] [min]	IC50 [4] [nM]	microsomal CLint at 2 μM [5] [µL/min/mg]	half-life at 2 μM [5] [min]	efflux ratio at 2 h, 5 μM [6]	other results
Nc1nccc(-c2c(-c3ccc(F)cc3)nc3cnccn23)n1 [Compound 1-1, 4-(2-(4-fluorophenyl)imidazo[1,2-a]pyrazin-3-yl)pyrimidin-2-amine]	–	–	–	–	–	–	relative proliferation (%) of cells [1]: affected in a concentration dependent manner; relative migration (%) of cells [2]: reduced; migrated cells [2]: suppressed the migration
C[C@@H]1Cn2nc(-c3ccc(F)cc3)c(-c3ccncc3)c2CO1 [Compound 1-46, (R)-2-(4-fluorophenyl)-6-methyl-3-(pyridin-4-yl)-6,7-dihydro-4H-pyrazolo[5,1-c][1,4]oxazine]	44.9	30.9	273	60.1	23.1	–	–
Nc1cc(-c2c(-c3ccc(F)cc3)nn3c2COCC3)ccn1 [Compound 1-49, 4-(2-(4-fluorophenyl)-6,7-dihydro-4H-pyrazolo[5,1-c][1,4]oxazin-3-yl)pyridin-2-amine]	104	13.3	320	49.5	28	–	–
CC(=O)N1CCn2nc(-c3ccc(F)cc3)c(-c3ccnc(N)c3)c2C1 [Compound 1-50, 1-(3-(2-aminopyridin-4-yl)-2-(4-fluorophenyl)-6,7-dihydropyrazolo[1,5-a]pyrazin-5(4H)-yl)ethan-1-one]	–	–	355	–	–	3.6	Papp A→B at 2 h, 5 μM [6]: 8.5 ×10⁻⁶ cm/s; Papp B→A at 2 h, 5 μM [6]: 30.8 ×10⁻⁶ cm/s
Nc1cc(-c2c(-c3ccc(F)cc3)nn3c2CCC3)ccn1 [Compound 1-57, 4-(2-(4-fluorophenyl)-5,6-dihydro-4H-pyrrolo[1,2-b]pyrazol-3-yl)pyridin-2-amine]	285	4.86	131	104	13.4	0.9	Papp A→B at 2 h, 5 μM [6]: 19.2 ×10⁻⁶ cm/s; Papp B→A at 2 h, 5 μM [6]: 17.3 ×10⁻⁶ cm/s
CN1CCn2nc(-c3ccc(F)cc3)c(-c3ccnc(N)c3)c2C1 [Compound 1-59, 4-(2-(4-fluorophenyl)-5-methyl-4,5,6,7-tetrahydropyrazolo[1,5-a]pyrazin-3-yl)pyridin-2-amine]	22.2	62.3	39.7	9.7	143	1.05	Papp A→B at 2 h, 5 μM [6]: 22.8 ×10⁻⁶ cm/s; Papp B→A at 2 h, 5 μM [6]: 23.9 ×10⁻⁶ cm/s
C[C@H]1O[C@@H](O[C@H]2[C@@H](O)C[C@H](O[C@H]3[C@@H](O)C[C@H](O[C@H]4CC[C@@]5(C)[C@H](CC[C@@H]6[C@@H]5C[C@@H](O)[C@]5(C)[C@@H](C7=CC(=O)OC7)CC[C@]65O)C4)O[C@@H]3C)O[C@@H]2C)C[C@H](O)[C@@H]1O [Digoxin, reference compound]	–	–	–	–	–	56.5	–
CC(C)NCC(O)COc1cccc2ccccc12 (stereo not shown) [Propranolol, reference compound]	–	–	–	–	–	0.51	–

Further lines, with some results ahead:

microsomal CLint at 2 μM [3] [µL/min/mg]	half-life at 2 μM [3] [min]	IC50 [4] [nM]	microsomal CLint at 2 μM [5] [µL/min/mg]	half-life at 2 μM [5] [min]	efflux ratio at 2 h, 5 μM [6]	Compound	other results
–	–	212	–	–	–	Cc1cn(-c2ccncc2)c(-c2ccc(F)cc2)c1C#N [Compound 2-2, 2-(4-fluorophenyl)-4-methyl-1-(pyridin-4-yl)-1H-pyrrole-3-carbonitrile]	relative migration (%) of cells [2]: reduced; migrated cells [2]: suppressed the migration
–	–	7140	–	–	–	Fc1ccc(-c2nn[nH]c2-c2ccncc2)cc1 [Compound 3-7, 4-(4-(4-fluorophenyl)-1H-1,2,3-triazol-5-yl)pyridine]	relative migration (%) of cells [2]: reduced; migrated cells [2]: suppressed the migration
–	–	97400	–	–	–	COc1ccc(Cn2nnc(-c3ccc(F)cc3)c2-c2ccncc2)cc1 [Compound 3-8, 4-(4-(4-fluorophenyl)-1-(4-methoxybenzyl)-1H-1,2,3-triazol-5-yl)pyridine]	relative proliferation (%) of cells [1]: affected in a concentration dependent manner
25.2	55	168	7.93	175	–	Cn1cc(-c2ccnc3[nH]ncc23)c(-c2ccc(F)cc2)c1C#N [Compound 5-2, 3-(4-fluorophenyl)-1-methyl-4-(1H-pyrazolo[3,4-b]pyridin-4-yl)-1H-pyrrole-2-carbonitrile]	–
–	–	93	–	–	–	Cc1cc(-c2ccnc3c2C(=O)OC3)n(-c2ccc(F)cc2)n1 [Compound 6-1, 4-(1-(4-fluorophenyl)-3-methyl-1H-pyrazol-5-yl)furo[3,4-b]pyridin-5(7H)-one]	–

— patent publication US20230192699A1, “COMPOUNDS AS CASEIN KINASE INHIBITORS” (GRITSCIENCE BIOPHARMACEUTICALS CO., LTD., priority 2020, published 2023)
